We go through 18 molecules from PubChem BioAssay (NCI).

Common to all, as to assay: inhibition of tumour cell growth, NCI panel, 48 h
The subject of assay [1] is DLD-1 colon.
Assay [2] has as its system DMS 114 small cell lung.
Assay [3] concerns DMS 273 small cell lung.
Assay [4] concerns HOP-18 NSCLC.
Assay [5] concerns KM20L2 colon.
Assay [6] deals with LXFL 529 NSCLC.
For assay [7], the system named is M19-MEL melanoma.
Assay [8] relates to SNB-78 CNS.
Assay [9] concerns RXF-631 renal.

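Results reflect a 48-hour exposure of cells in 96-well plates to compound at five concentrations. GI50 is the concentration that inhibits growth by half. TGI marks complete inhibition of growth.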

On to `CCC1(N=[N+]=[N-])C(=O)Nc2cc(C)ccc2C1=O` (stereo not drawn), for which the TGI in [1], in assay [2], in assay [3], in assay [4], in assay [5] and in assay [6] was > 100 µM each time. The TGI in assay [7] and in assay [8] was > 100 µM each time.
As for `Cc1cc(C)nc(Nc2nc3ccc([N+](=O)[O-])cc3[nH]2)n1`, the TGI in assay [1], in assay [2], in assay [3], in assay [5], in assay [6] and in assay [8] was > 100 µM in each case.
With `COc1cc2[nH]c(-c3cccc(N(C)C)c3)cc(=O)c2cc1OC`, the TGI in assay [1] was > 100 µM; in assay [2] it was > 49.1 µM; in assay [3], > 100 µM; in assay [4], 9.35 µM; in assay [5], 5.46 µM; in assay [6] it was > 100 µM. The TGI in assay [7] and in [8] was > 100 µM each time.
For `[N-]=[N+]=NC1C(Br)C(=O)NC(=O)N1[C@H]1C[C@H](O)[C@@H](CO)O1` (stereo partly drawn), the TGI in assay [1], in [2], in [3], in assay [5], in assay [6] and in [7] was > 100 µM in each case. In addition, the TGI in [8] was > 100 µM. For the same molecule, the GI50 in [2] is 90.9 µM; in assay [7], 91.5 µM.
As to `CC(=O)Nc1ccc(C2[C@H]3C(=O)N(c4ccc(Cc5ccc(N6C(=O)[C@@H]7ON(c8ccccc8)C(c8ccc(NC(C)=O)cc8)[C@@H]7C6=O)cc5)cc4)C(=O)[C@H]3ON2c2ccccc2)cc1` (stereo partly drawn), the TGI in assay [1], in [2], in [3], in assay [4], in assay [5] and in assay [6] was > 100 µM throughout. Further, the TGI in [7] and in assay [8] was > 100 µM each time.
Turning to `CC(=O)OCC1OC(n2c(=O)n(-c3ccccc3)c(=O)c3ccccc32)C(OC(C)=O)C(OC(C)=O)C1OC(C)=O` (stereo not drawn), the TGI in assay [1], in assay [2], in assay [3], in [4], in assay [5] and in [6] was > 100 µM throughout. In addition, the TGI in assay [7], in assay [9] and in assay [8] was > 100 µM in each case.
With `CCOP(=O)(OCC)/C(C#N)=C/c1ccco1`, the TGI in [1], in assay [2], in assay [4], in assay [6], in assay [7] and in [9] was > 100 µM in each case. The TGI in [8] was > 100 µM.
For the molecule `CCOC(=O)CC[C@@H](NC(=O)c1ccc(N[C@@H]2c3cc4c(cc3C(c3cc(OC)c(O)c(OC)c3)C3C(=O)OC[C@@H]32)OCO4)cc1)C(=O)OCC` (stereo partly drawn), the TGI in assay [1] was 0.406 µM; in assay [3], 0.114 µM; in assay [4], > 10 µM; in assay [5], 0.272 µM; in assay [6], > 10 µM; in assay [8] it was > 10 µM.
For `CCCCc1c2c(nc3c1CCC/C3=C\c1ccccc1)C(=O)C(CN(C)C)CC2` (stereo not drawn), the TGI in assay [1] was determined as 33.4 µM; in assay [2], 34.8 µM; in assay [3], 41.1 µM; in assay [4] it was 38.5 µM; in [5], 35.6 µM; in [6], 21 µM. The TGI was 32 µM in assay [7] and 45.6 µM in assay [8].
Regarding `N#CC12C3C4CC5C6C4C1C6C(O)(C53)N2Cc1ccccc1` (stereo not drawn), the TGI in assay [1], in [2], in assay [3], in [4], in assay [5] and in assay [6] was > 100 µM throughout. For the same molecule, in assay [9], the TGI was > 100 µM.
Consider `CCN(CC)Cc1cc(Nc2c3ccccc3nc3c2[nH]c2ccccc23)ccc1O`, for which the TGI in assay [1] was 5.7 µM; in [2] it was 3.14 µM; in assay [3], 1.84 µM; in assay [4], 5.39 µM; in assay [5], 2.41 µM; in [6], 3.02 µM. Further, the TGI in assay [7] turned out to be 3.04 µM; in assay [9], 4.37 µM; in [8], 4.87 µM.
With `O=c1cc2ccccc2nn1-c1ccccc1Cl`, the TGI in [1], in assay [2], in [3], in assay [4], in [5] and in assay [7] was > 100 µM throughout. For the same molecule, the TGI in [8] was > 100 µM.
Consider `CC1=NN(C(=O)Cc2ccccc2)C(=O)/C1=C\C=C\c1ccccc1`, for which the TGI in assay [1], in [3], in assay [4] and in assay [8] was > 100 µM in each case.
As for `COC(=O)CC1C(=O)OCc2c1cc1n(c2=O)Cc2c-1nc1ccccc1c2OC` (stereo not drawn), the TGI in assay [2], in assay [3], in assay [4], in assay [5], in assay [6] and in [7] was > 100 µM throughout.
Turning to `Cc1cc2oc(=O)[nH]c(=S)c2c(C)c1C`, the TGI in [2], in assay [3], in assay [4], in assay [5], in assay [6] and in assay [7] was > 100 µM each time.
With `COC(=O)N/N=C/c1oc(-c2cccc([N+](=O)[O-])c2)c(-c2cccc([N+](=O)[O-])c2)c1[N+](=O)[O-]`, the TGI in [1], in assay [3], in assay [4], in [5], in assay [6] and in [7] was > 100 µM each time.
Regarding `COC[n+]1cc2cc(OC)c(OC)cc2c2ccc3cc(OC)c(OC)cc3c21`, the TGI in assay [1], in assay [2], in [4], in assay [5], in [6] and in assay [7] was > 100 µM each time. In addition, the TGI in assay [9] and in assay [8] was > 100 µM throughout.
As for `COC(=O)c1c(C(=O)OC)c2cc(C(=O)c3ccccc3)ccn2c1Cl`, the TGI is 89.1 µM in assay [2]; 90.4 µM in assay [3]; > 100 µM in [5]; > 100 µM in [6]; > 100 µM in assay [7]; > 100 µM in assay [8].
